Results as given in US10889844B2, “Methods of degrading or hydrolyzing a polysaccharide” (Novozymes A/S, priority 2010, dated 2021).
“Also recorded” adds a separate entry of the source.

Legend:
Type in all cases: biochemical
CBP21 [1] = biological target: T1, CBP21 (Serratia marcescens, UniProt P9WEM3); assay: Reactions under metal chelating conditions: re-activation of metal-free CBP21
Protocol: Solid lines indicate reactions with metal-free CBP21; dashed lines indicate reactions without CBP21. Half way through the reaction (indicated by the arrow) MgCl2 (final concentration 25 mM), ZnCl2 (25 mM) or buffer was added to one of two (parallel) reaction mixtures. Squares, MgCl2 added; circles, ZnCl2 added; triangles, buffer added.
Divalent cations were removed by chelation through dialysis of a 10 mg/mL CBP21 solution in a buffer containing 20 mM Tris-HCl and 5 mM EDTA. The protein solution was present in a Slide-A-Lyzer cassette (Pierce) with 10 kDa MW cut-off dialysis membrane. […] For the re-activation experiment, the divalent cations were added to the appropriate reaction solutions immediately after the third sampling (90 minutes).

Cellic™ CTec2 = assay: Effect of ascorbic acid on glucose release from cellulose by Cellic CTec2 (FIG. 35); settings: 0.5 mM ascorbic acid, 24 hours
[2] = Time course of filter paper cellulose degradation by […] with CelS2 (FIG. 25); settings: 0.5 mM reduced glutathione
Protocol: In reactions where no CelS2 was present, 40 μg/ml purified BSA was added in order to maintain an identical protein load. […] Data are mean+/−SD (N=3); error bars indicate SD.

[3] = Filter paper degradation by HjCel7A with CelS2 over time (FIG. 26); settings: no CelS2 present
Protocol: By far the major products of these reactions are cellooligosaccharides released by the cellulases (whose activity is boosted by CelS2). In the case of HjCel7A, the main product is cellobiose and formation of this product is shown. RG, indicates the presence of a reductant, in this case reduced glutathione. […] The reactions were run at 50° C.

[4] = Filter paper cellulose degradation by […] with E7 (FIG. 28); settings: 2 mM reduced glutathione
Protocol: 1 μM of the N-terminal CBM33 domain of CelS2 was incubated with 10 mg/ml AVICEL® in the presence of 0.8 mM of one of the reductants, or in the absence of any reductant. Reactions were run in 50 mM succinate buffer pH 5.5, 1 mM MgCl2, at 50° C. and 900 rpm (vertical agitation) for 20 hours. […] (glucose and cellobiose reported as [Glc]) released after incubation of 0.08 μl/ml […]™ (CC) in the presence or absence of 1 μM E7 and 2 mM reduced glutathione (RG) as external electron donor with 2 mg/ml filter paper cellulose. Reactions were incubated in 20 mM sodium acetate buffer pH 5.5, 1 mM MgCl2, at 50° C. and 900 rpm (horizontal agitation) for up to 50 hours.

CBP21 [5] = biological target: T1, CBP21
[6] = system: CBP21 (Serratia marcescens); settings: CBP21 alone on beta-chitin with reductant; 10 mM sodium dithionite anaerobic or 2.0 mM potassium cyanide
[7] = Cleavage of AVICEL by GH61 proteins in the presence of ascorbic acid (HPAEC, FIG. 34); settings: 140 μg/ml GH61 protein, 10 mg/ml AVICEL, 2.4 mM ascorbic acid, pH 6.6, 24 hours
Source text: The two proteins were cloned and produced as described in Harris et al., 2010, supra. […] While the product pattern is similar to that obtained with CBM33s, it is not identical. The patterns typically obtained with CBM33s acting on cellulose in the presence of reductants (FIGS. 19, 22, 27, 30, and 31) show different peridiodicities (i.e., relative abundances of the various products, both oxidized and native oligosaccharides). This may indicate that TtGH61E acts on the substrate in a slightly different way, e.g., by attacking another face of the crystal. Clearly, however, the overall outcome of the reaction of TtGH61E in the presence of the reductant is similar to the outcome of reactions of CBM33s on cellulose in the presence of reductant.

[8] = EfCBM33 boost of alpha-chitin degradation by chitinase EF0361; settings: 2.0 mg/ml alpha-chitin, 0.3 μM EF0361, 0.3 μM EfCBM33, 1.0 mM reduced glutathione
Protocol: (§1) For use in chitin degradation experiments, eight crystals were harvested from a 2 μL drop using a nylon loop and transferred to a 4 μL drop containing the crystallization liquor from the buffer reservoir. The crystals were mixed around in order to “rinse off” potential contaminants. After the first rinse, the crystals were transferred to a new 4 μL drop containing the crystallization liquor for a second rinsing cycle. Finally, all crystals were transferred to and dissolved in a 4 μL drop containing 20 mM Tris-HCl, pH 8.0. The resulting solution was diluted by adding it to a test tube containing 46 μL 20 mM Tris-HCl, pH 8.0. […] Soluble products in the supernatant of the reaction were analyzed by MALDI-TOF, using the same methods as those used for testing the activity of CBP21. Further, the ability of EfCBM33 to boost degradation of alpha-chitin was probed by conducting an experiment where 2.0 mg/ml alpha-chitin (shrimp shells) was incubated with 0.3 μM of the chitinase from Entreococcus feacalis (protein name (EF0361)) in the presence or absence of 0.3 μM EfCBM33 and 1.0 mM reductant (R: reduced glutathione) incubated at 37° C. with agitation at 900 rpm.

[9] = EfCBM33 (dissolved crystals) on beta-chitin, MALDI-TOF MS; settings: 2.0 mg/ml beta-chitin
Protocol: as §1

T1 sequence (P9WEM3 28-197): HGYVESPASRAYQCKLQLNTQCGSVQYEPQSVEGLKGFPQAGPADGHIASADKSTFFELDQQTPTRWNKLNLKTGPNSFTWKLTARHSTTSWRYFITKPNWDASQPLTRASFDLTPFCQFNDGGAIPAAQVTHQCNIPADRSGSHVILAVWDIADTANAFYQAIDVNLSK
CBP21 (Serratia marcescens), sequence (P9WEM3 28-197): as above

[Cl-].[Cl-].[Mg+2] [MgCl2]
re-activation of metal-free CBP21 (CBP21 [1]): Re-activation of metal-free CBP21 was achieved

[Cl-].[Cl-].[Zn+2] [ZnCl2]
re-activation of metal-free CBP21 (CBP21 [1]): Re-activation of metal-free CBP21 was achieved

O=C1O[C@H]([C@@H](O)CO)C(O)=C1O [ascorbic acid]
increase of the release of glucose (Cellic™ CTec2; AVICEL®): about 30%
increase of the release of glucose (Cellic™ CTec2; Filter Paper): about 30%

N[C@@H](CCC(=O)N[C@@H](CS)C(=O)NCC(=O)O)C(=O)O [reduced glutathione, reference compound]
effect of reductant in reactions with only CC [2]: no effect in reactions with only CC
effect of reductant on Cel7A alone [3]: essentially identical
effect of reductant in reactions with only CC [4]: no effect in reactions with only CC

O=S([O-])S(=O)[O-].[Na+].[Na+] [sodium dithionite, Sodium dithionite]
effect on the potentiating effect of CBP21 on ChiC (CBP21 [5]): abolished
effect on CBP21 generated oxidized products [6]: no detectable amounts of CBP21 generated products

B1: TaGH61A: GH61 protein (SEQ ID NO: 2), GH61A from T. aurantiacus (protein)
chain: MSFSKIIATAGVLASASLVAGHGFVQNIVIDGKKYYGGYLVNQYPYMSNPPEVIAWSTTATDLGFVDGTGYQTPDIICHRGAKPGALTAPVSPGGTVELQWTPWPDSHHGPVINYLAPCNGDCSTVDKTQLEFFKIAESGLINDDNPPGIWASDNLIAANNSWTVTIPTTIAPGNYVLRHEIIALHSAQNQDGAQNYPQCINLQVTGGGSDNPAGTLGTALYHDTDPGILINIYQKLSSYIIPGPPLYTG
modifications: T. aurantiacus
cleavage of cellulose, oxidized products [7]: much less active than TtGH61E

B2: TtGH61E: GH61 protein from Thielavia terrestris (SEQ ID NO: 1) (protein)
chain: MLANGAIVFLAAALGVSGHYTWPRVNDGADWQQVRKADNWQDNGYVGDVTSPQIRCFQATPSPAPSVLNTTAGSTVTYWANPDVYHPGPVQFYMARVPDGEDINSWNGDGAVWFKVYEDHPTFGAQLTWPSTGKSSFAVPIPPCIKSGYYLLRAEQIGLHVAQSVGGAQFYISCAQLSVTGGGSTEPPNKVAFPGAYSATDPGILINIYYPVPTSYQNPGPAVFSCMLANGAIVFLAAALGVSGHYTWPRVNDGADWQQVRKADNWQDNGYVGDVTSPQIRCFQATPSPAPSVLNTTAGSTVTYWANPDVYHPGPVQFYMARVPDGEDINSWNGDGAVWFKVYEDHPTFGAQLTWPSTGKSSFAVPIPPCIKSGYYLLRAEQIGLHVAQSVGGAQFYISCAQLSVTGGGSTEPPNKVAFPGAYSATDPGILINIYYPVPTSYQNPGPAVFSC
modifications: T. terrestris
cleavage of cellulose, oxidized products [7]: cuts cellulose producing oxidized and native celluoligosaccharides

B3: EfCBM33: family 33 CBM from Enterococcus faecalis (Uniprot ID:Q838S1; SEQ ID NO: 5) (protein, listed as Enterococcus faecalis)
chain: MKKSLLTIVLAFSFVLGGAALAPTVSEAHGYVASPGSRAFFGSSAGGNLNTNVGRAQWEPQSIEAPKNTFITGKLASAGVSGFEPLDEQTATRWHKTNITTGPLDITWNLTAQHRTASWDYYITKNGWNPNQPLDIKNFDKIASIDGKQEVPNKVVKQTINIPTDRKGYHVIYAVWGIGDTVNAFYQAIDVNIQ
boost of chitinase activity on alpha-chitin [8]: A boost of the chitinase activity is clearly observed
oxidohydrolytic activity on beta-chitin (soluble products) [9]: clearly showing the formation of oxidized products; also recorded: the product spectrum is dominated by even-numbered oxidized chitooligosaccharides
